Source: patent publication US10561681B2, “Antimetastatic 2H-selenopheno[3,2-h]chromenes, synthesis thereof, and methods of using same agents” (Latvian Institute of Organic Synthesis, priority 2016, dated 2020)
Several values for one entry are separate records, joined by “and”; a condition that tells them apart may be missing. Identical values can stand only once.

What was measured:
[1] = tested on: 4T1 cells; assay: Orthotropic model of 4T1 murine metastatic breast cancer in BALB/c mice; assay type: in vivo, mouse; conditions: 4T1 orthotropic; for Increase of spleen weight (splenomegaly) compared with healthy animals: control with tumors 316%
Procedure: Orthotropic model of mouse breast cancer was developed by injection of 4T1 cells in the mammary fat pad of syngeneic BALB/c mice. In this case, 4T1 cells develops solid tumors following by metastasis in lung, liver, lymph nodes, and brain (Aslakson at al., Cancer Res, 1992, 52, 1399-1405).
In our experiments seven-week-old female BALB/c mice were injected orthotopically into the fourth mammary fat pad with 10^5 4T1 cells suspended in 0.01 mL of PBS on day zero of the study. The compounds dissolved in DMSO, diluted with 0.1 mL water (DMSO final concentration 1%) and injected s.c. The compounds were administered at 1, 2, 3, 11 days, dose 20 mg/kg. Mice in the untreated group were similarly given four doses of 0.1 mL of water with DMSO. Tumor volume (tumor volume V=[…], wherein “a” is the maximal, and “b”—the minimal tumor diameter) was calculated twice per week. The mice were examined every other day on appearance, weight and behavior. The mice were sacrificed at day 16 of the experiment by decapitation under ketamine/xylazine anesthesia. After euthanasia, the mice were dissected. The primary tumor, liver and spleen were removed, weighed and studied. All metastases in the internal organs were described.

[2] = Basal cytotoxicity test, Neutral Red Uptake (NRU) assay; assay type: cell-based; conditions: for LD50 at 24 h: mouse, po, acute oral LD50 calculated from 3T3 NRU IC50 by regression formula, read-out: Basal cytotoxicity Estimated* LD50; for IC50 at 24 h: normal mouse embryo fibroblasts, read-out: Cytotoxicity IC50, 3T3
In short: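 Balb/c 3T3 fibroblasts (9000 cells/well) exposed 24 h to compounds at 1–1000 μg/ml in DMEM with 5% FBS. Viability by Neutral Red uptake (3 h, 0.05 mg/mL), absorbance at 540 nm relative to untreated cells; IC50 from concentration–response.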

[3] = tested on: B16-F10 melanoma cells; assay: Melanoma model of lung metastasis in C57BL/6 mice; assay type: in vivo, mouse; conditions: total dose 140 mg/kg; for Inhibition of melanoma metastasis in lung: s.c. Day 1, 7, 8, 9, 10, 11, 14, 20 mg/kg, day 21; for Animals (group of six) without melanoma metastasis: s.c.
Procedure: B16-F10 cells (10,000/0.1 ml PBS) were injected i.v. into syngeneic mice. The number of macroscopic lung metastases was determined 21 days later.
C57BL/6 mice were injected with 100,000 B16-F10 melanoma cells into the mice via the tail vein and treatment started 24 hr later with subcutaneous injections (s.c.) of compounds administered according to the following scheme: 1, 7, 8, 9, 10, 11 and 14th days in dose 20 mg/kg. Mice in the control group were similarly given doses of 0.1 mL of water with DMSO (DMSO final concentration <1%). Twenty-one days later, all mice were anesthetized with ketamine/xylazine and euthanized, the mice were sacrificed and the black melanoma nodules on the lungs were measured. In each experiment, mice were weighed twice weekly.

[4] = tested on: malignant tumor cells; assay: In vitro cytotoxicity on monolayer tumor cell lines (panel, summary in words); assay type: cell-based; conditions: summary of Table 1
Procedure: Anticancer activity of selenopheno[h]chromenes was tested in vitro using cytotoxicity assay. Thus, monolayer tumor cell lines MDA-MB-435s (human melanoma), MCF-7 (human breast adenocarcinoma, estrogen-positive), MES-SA (human uterus sarcoma), HT-1080 (human fibrosarcoma), A549 (human lung carcinoma), SH-SY5Y (human neuroblastoma), CCL-8 (mouse sarcoma), MG-22A (mouse hepatoma), and HepG2 (human hepatocellular carcinoma) were cultured in standard medium DMEM (Dulbecco's modified Eagle's medium) (“Sigma”) supplemented with 10% fetal bovine serum (“Sigma”). About 2-9·10^4 cells/mL (depending on line nature) were placed in 96-well plates immediately after compounds were added to the wells. Untreated cells were used as a control. The plates were incubated for 72 h, 37° C., 5% CO2. The number of surviving cells was determined using 3-(4,5-dimethylthiazol-2-yl)-2,5-diphenyltetrazolinium bromide (MTT). MTT-test: after incubating culture medium was removed and 200 μL fresh medium with 10 mM HEPES was added in each well of the plate, than 20 μL MTT (2 mg/mL in HBSS) was added. After incubation (3 hr, 37° C., 5% CO2), the medium with MTT was removed and 200 μL DMSO were added at once to each sample. The samples were tested at 540 nm on Anthos HT II photometer.

Structure (SMILES)	Formation of metastases [1]	Increase of spleen weight (splenomegaly) compared with healthy animals [1] [%]	LD50 at 24 h [2]	IC50 at 24 h [2] [µM]	Inhibition of melanoma metastasis in lung [3] [%]	Animals (group of six) without melanoma metastasis [3]	Cytotoxicity on cancer cell lines [4]
COC(=O)c1cc2ccc3c(Br)c(CN4CCN(C)CC4)[se]c3c2oc1=O [Compound I-10, Methyl 7-bromo-8-((4-methylpiperazin-1-yl)methyl)-2-oxo-2H-selenopheno[3,2-h]chromene-3-carboxylate]	dramatically reduces the formation of metastases	256	4300 µmol/kg and 2300 mg/kg	86 ± 5	74	five	low toxic to the cancer cell lines
O=C(O)c1cc2ccc3c(Br)c(C4(O)CCCCC4)[se]c3c2oc1=O [Compound I-11, 7-Bromo-8-(1-hydroxycyclohexyl)-2-oxo-2H-selenopheno[3,2-h]chromene-3-carboxylic acid]	dramatically reduces the formation of metastases	198	> 5800 µmol/kg and > 2730 mg/kg	> 213	96	four	complete loss of cytotoxicity
